Results as given in patent US12152035B2, “Androgen receptor binding molecule and use thereof” (Industrial Technology Research Institute, priority 2020, dated 2024).

Legend:
Format in all cases: cell-based
[1] = test system: full-length androgen receptor; test: Western blot: degradation of full-length androgen receptor in CWR22RV1 cells; settings: overnight
Description: CWR22Rv1 cells were maintained in RPMI medium supplemented with 10% fetal bovine serum and 1% penicillin-streptomycin at 37° C. in a humidified environment with 5% CO2.
CWR22Rv1 (5×10^5 cells) were seeded in each well of a 6-well plate and incubated overnight. Before compound treatment, the medium in the wells was replaced with a new medium. Cells were treated with different concentrations of compound overnight. Subsequently, cells were harvested by adding cold PBS and scraping cells. Cells were lysed according to general procedures and Western blot assays were performed to assess the ability of compounds to degrade full-length androgen receptor or androgen receptor splice variant 7. The cells or cell lysates were kept on ice at all times.
The following reagents were used in this experiment. Phosphate buffered saline (PBS) (Hyclone, SH30028.02), fetal bovine serum (Hyclone, SH30084.23, Lot AC14563276), penicillin-streptomycin solution (Hyclone, SV30010), 0.5% Trypsin-EDTA (Gibco, 15400-054), CST Lysis Buffer (CST-9803), Halt™ Protease and Phosphatase Inhibitor (ThermoFisher, 78442), Coomassie (Bradford) Protein Assay (Coomassie (Bradford) protein assay) (ThermoFisher, 23200), androgen receptor antibody (Cell Siginaling, CST-5153S), GAPDH antibody (Cell Siginaling, CST-5174S), HRP-goat-anti-rabbit (Jackson Immuno Research, 111-035-003), skim milk, SuperSignal West Pico Maximum Sensitivity substrate (ThermoFisher, 34080).
The compound prepared above was analyzed for its ability to degrade full-length androgen receptor and androgen receptor splice variant 7 in CWR22RV1 cells by Western blotting according to the method shown in item B.3-2 above.

CWR22RV1 cells = test: Cytotoxicity assay (AlamarBlue, 72 hours); settings: 72 hours treatment, concentration not given
Description: (§1) Compound stock solutions of 10 mM were prepared with 100% DMSO and shaken for 10-15 seconds. The compound stock solutions were centrifuged at 12000 rpm (13523 rcf.) for 5 minutes and record the turbidity or precipitation state with a photo snapshot. The compound stock solutions were resuspended by shaking for 10-15 seconds, and serially diluted with 100% DMSO solution to make the compound concentration to 1000 μM, then to 100, 10, and 1 μM, and then 10-fold diluted with medium to 100, 10, 1, 0.1 μM (final 10% DMSO/medium) to complete compound test sample preparation. Compound treatment was performed by adding 10 μL of compound test sample to cells in each well of a 96-well plate (final 1% DMSO/medium).
(§2) Cells (CWR22Rv1 cells or VCaP cells) were cultured in RPMI-1640 medium supplemented with 10% fetal bovine serum, 10,000 U/mL penicillin and 10,000 μg/mL streptomycin. Cells were cultured at 37° C. in a humidified 5% CO2 incubator.
(§3) Cells were seeded in a 96-well plate (1×10^4 cells/well). 10 μL of the above compound test sample was added to each well of the 96-well plate on next day. After 72 hours of compound treatment, 10 μL of AlamaBlue reagent was added to each of 96 wells and incubated for 4 hours. The fluorescence value at Ex/Em=560/590 nm was read with a microplate reader, and the cytotoxicity (%) was calculated.
(§4) According to the above method, the compounds prepared above were subjected to cytotoxicity test with CWR22RV1 cells and VCaP cells.

VCaP cells = test: Cytotoxicity assay (AlamarBlue, 72 hours); settings: 72 hours treatment, concentration not given
Description: as §1, §2, §3, §4

[2] = compound concentration 0.1 (unit not given)
[3] = compound concentration 1 (unit not given)
[4] = compound concentration 10 (unit not given)

Cc1ncsc1-c1ccc(CNC(=O)[C@@H]2C[C@H](O)CN2C(=O)[C@@H](NC(=O)COCCCCCOc2ccc(C3CCN(C4=Nn5c(nnc5C(F)(F)F)CC4)CC3)cc2)C(C)(C)C)cc1 [Compound 21]
Degradation ability for full-length androgen receptor (residual rate %) [1, 2]: − (>80%; −)
Degradation ability for full-length androgen receptor (residual rate %) [1, 3]: − (>80%; −)
Degradation ability for full-length androgen receptor (residual rate %) [1, 4]: +++ (<40%: +++)
Cytotoxicity, CWR22RV1 cells (cell viability %) (CWR22RV1 cells): +++ (<40% : +++)
Cytotoxicity, VCaP cells (cell viability %) (VCaP cells): + (60-80% : +)

Cc1ncsc1-c1ccc(CNC(=O)[C@@H]2C[C@H](O)CN2C(=O)[C@@H](NC(=O)COCCOc2ccc(C3CCN(C4=Nn5c(nnc5C(F)(F)F)CC4)CC3)cc2)C(C)(C)C)cc1 [Compound 19, (2S,4S)-1-((S)-3,3-dimethyl-2-(2-(2-(4-(1-(3-(trifluoromethyl)-7,8-dihydro-[1,2,4]triazolo[4,3-b]pyridazin-6-yl)piperidin-4-yl)phenoxy)ethoxy)acetamido)butanoyl)-4-hydroxy-N-(4-(4-methylthiazol-5-yl)benzyl)pyrrolidine-2-carboxamide]
Degradation ability for full-length androgen receptor (residual rate %) [1, 2]: − (>80%; −)
Degradation ability for full-length androgen receptor (residual rate %) [1, 3]: − (>80%; −)
Degradation ability for full-length androgen receptor (residual rate %) [1, 4]: − (>80%; −)
Cytotoxicity, CWR22RV1 cells (cell viability %) (CWR22RV1 cells): − (<80% : −)
Cytotoxicity, VCaP cells (cell viability %) (VCaP cells): − (<80% : −)

O=C1CCC(N2C(=O)c3cccc(NCC(=O)N4CCC(N5CCC(C#Cc6ccc(C(=O)Nc7ccc(C8CCN(C9=Nn%10c(nnc%10C(F)(F)F)CC9)CC8)cc7)nc6)CC5)CC4)c3C2=O)C(=O)N1 (centres unmarked) [Compound 51, 5-((1′-((2-(2,6-dioxopiperidin-3-yl)-1,3-dioxoisoindolin-4-yl)glycyl)-[1,4′-bipiperidin]-4-yl)ethynyl)-N-(4-(1-(3-(trifluoromethyl)-7,8-dihydro-[1,2,4]triazolo[4,3-b]pyridazin-6-yl)piperidin-4-yl)phenyl)picolinamide]
Degradation ability for full-length androgen receptor (residual rate %) [1, 2]: − (>80%; −)
Degradation ability for full-length androgen receptor (residual rate %) [1, 3]: − (>80%; −)
Degradation ability for full-length androgen receptor (residual rate %) [1, 4]: + (60-80%: +)
Cytotoxicity, CWR22RV1 cells (cell viability %) (CWR22RV1 cells): +++ (<40% : +++)
Cytotoxicity, VCaP cells (cell viability %) (VCaP cells): +++ (<40% : +++)

O=C1CCC(N2Cc3c(NC(=O)COCCCCOc4ccc(C5CCN(c6ccc7nnc(C(F)(F)F)n7n6)CC5)cc4)cccc3C2=O)C(=O)N1 (centres unmarked) [Compound 38, N-(2-(2,6-dioxopiperidin-3-yl)-1-oxoisoindolin-4-yl)-2-(4-(4-(1-(3-(trifluoromethyl)-[1,2,4]triazolo[4,3-b]pyridazin-6-yl)piperidin-4-yl)phenoxy)butoxy)acetamide]
Degradation ability for full-length androgen receptor (residual rate %) [1, 2]: ++ (40-60%: ++)
Degradation ability for full-length androgen receptor (residual rate %) [1, 3]: +++ (<40%: +++)
Degradation ability for full-length androgen receptor (residual rate %) [1, 4]: +++ (<40%: +++)
Cytotoxicity, CWR22RV1 cells (cell viability %) (CWR22RV1 cells): +++ (<40% : +++)
Cytotoxicity, VCaP cells (cell viability %) (VCaP cells): +++ (<40% : +++)

Cc1ncsc1-c1ccc(CNC(=O)[C@H]2C[C@@H](O)CN2C(=O)[C@@H](NC(=O)C2(F)CC2)C(C)(C)C)c(OCCCCCCCOc2ccc(C3CCN(C4=Nn5c(nnc5C(F)(F)F)CC4)CC3)cc2)c1 [Compound 36, (2R,4R)-1-((S)-2-(1-fluorocyclopropane-1-carboxamido)-3,3-dimethylbutanoyl)-4-hydroxy-N-(4-(4-methylthiazol-5-yl)-2-((7-(4-(1-(3-(trifluoromethyl)-7,8-dihydro-[1,2,4]triazolo[4,3-b]pyridazin-6-yl)piperidin-4-yl)phenoxy)heptyl)oxy)benzyl)pyrrolidine-2-carboxamide]
Degradation ability for full-length androgen receptor (residual rate %) [1, 2]: − (>80%; −)
Degradation ability for full-length androgen receptor (residual rate %) [1, 3]: + (60-80%: +)
Degradation ability for full-length androgen receptor (residual rate %) [1, 4]: + (60-80%: +)
Cytotoxicity, CWR22RV1 cells (cell viability %) (CWR22RV1 cells): +++ (<40% : +++)
Cytotoxicity, VCaP cells (cell viability %) (VCaP cells): +++ (<40% : +++)

O=C1CCC(N2C(=O)c3cccc(N4CCC(N5CCC(C#Cc6ccc(C7CCN(C8=Nn9c(nnc9C(F)(F)F)CC8)CC7)cc6)CC5)CC4)c3C2=O)C(=O)N1 (centres unmarked) [Compound 44, 2-(2,6-dioxopiperidin-3-yl)-4-(4-((4-(1-(3-(trifluoromethyl)-7,8-dihydro-[1,2,4]triazolo[4,3-b]pyridazin-6-yl)piperidin-4-yl)phenyl)ethynyl)-[1,4′-bipiperidin]-1′-yl)isoindoline-1,3-dione]
Degradation ability for full-length androgen receptor (residual rate %) [1, 2]: − (>80%; −)
Degradation ability for full-length androgen receptor (residual rate %) [1, 3]: − (>80%; −)
Degradation ability for full-length androgen receptor (residual rate %) [1, 4]: ++ (40-60%: ++)
Cytotoxicity, CWR22RV1 cells (cell viability %) (CWR22RV1 cells): +++ (<40% : +++)
Cytotoxicity, VCaP cells (cell viability %) (VCaP cells): +++ (<40% : +++)

Cc1ncsc1-c1ccc(CNC(=O)[C@@H]2C[C@H](O)CN2C(=O)[C@@H](NC(=O)COCCCCOc2ccc(C3CCN(C4=Nn5c(nnc5C(F)(F)F)CC4)CC3)cc2)C(C)(C)C)c(O)c1 [Compound 35, (2S,4S)-1-((S)-3,3-dimethyl-2-(2-(4-(4-(1-(3-(trifluoromethyl)-7,8-dihydro-[1,2,4]triazolo[4,3-b]pyridazin-6-yl)piperidin-4-yl)phenoxy)butoxy)acetamido)butanoyl)-4-hydroxy-N-(2-hydroxy-4-(4-methylthiazol-5-yl)benzyl)pyrrolidine-2-carboxamide]
Cytotoxicity, CWR22RV1 cells (cell viability %) (CWR22RV1 cells): +++ (<40% : +++)
Cytotoxicity, VCaP cells (cell viability %) (VCaP cells): +++ (<40% : +++)

Cc1ncsc1-c1ccc(CNC(=O)[C@@H]2C[C@H](O)CN2C(=O)[C@@H](NC(=O)c2ccc(C(=O)N3CCC(C#Cc4ccc(C5CCN(C6=Nn7c(nnc7C(F)(F)F)CC6)CC5)cc4)CC3)cc2)C(C)(C)C)cc1 [Compound 33, 1-(3,3-dimethyl-2-(4-(4-((4-(1-(3-(trifluoromethyl)-7,8-dihydro-[1,2,4]triazolo[4,3-b]pyridazin-6-yl)piperidin-4-yl)phenyl)ethynyl)piperidine-1-carbonyl)benzamido)butanoyl)-4-hydroxy-N-(4-(4-methylthiazol-5-yl)benzyl)pyrrolidine-2-carboxamide]
Cytotoxicity, CWR22RV1 cells (cell viability %) (CWR22RV1 cells): − (<80% : −)
Cytotoxicity, VCaP cells (cell viability %) (VCaP cells): +++ (<40% : +++)

O=C1CCC(N2Cc3c(NC(=O)COCCCCCCOc4ccc(C5CCN(C6=Nn7c(nnc7C(F)(F)F)CC6)CC5)cc4)cccc3C2=O)C(=O)N1 (centres unmarked) [Compound 32, N-(2-(2,6-dioxopiperidin-3-yl)-1-oxoisoindolin-4-yl)-2-((6-(4-(1-(3-(trifluoromethyl)-7,8-dihydro-[1,2,4]triazolo[4,3-b]pyridazin-6-yl)piperidin-4-yl)phenoxy)hexyl)oxy)acetamide]
Cytotoxicity, CWR22RV1 cells (cell viability %) (CWR22RV1 cells): + (60-80% : +)
Cytotoxicity, VCaP cells (cell viability %) (VCaP cells): ++ (40-60% : ++)

Cc1ncsc1-c1ccc(CNC(=O)[C@@H]2C[C@H](O)CN2C(=O)[C@@H](NC(=O)C2CCC(C(=O)N3CCC(C#Cc4ccc(C5CCN(C6=Nn7c(nnc7C(F)(F)F)CC6)CC5)cc4)CC3)CC2)C(C)(C)C)cc1 (stereo in doubt) [Compound 34, 1-(3,3-dimethyl-2-(4-(4-((4-(1-(3-(trifluoromethyl)-7,8-dihydro-[1,2,4]triazolo[4,3-b]pyridazin-6-yl)piperidin-4-yl)phenyl)ethynyl)piperidine-1-carbonyl)cyclohexane-1-carboxamido)butanoyl)-4-hydroxy-N-(4-(4-methylthiazol-5-yl)benzyl)pyrrolidine-2-carboxamide]
Cytotoxicity, CWR22RV1 cells (cell viability %) (CWR22RV1 cells): + (60-80% : +)
Cytotoxicity, VCaP cells (cell viability %) (VCaP cells): +++ (<40% : +++)
